Where two headings read alike, the source gives them in different places.
Tests used:
[1] = tested on: MDCK cysts; conditions: read-out: IC50 of inhibition of cystic growth; MDCK cysts in 3D collagen I gel, 96 hours incubation, Alamar Blue
[2] = tested on: jck kidney; assay: PCNA and TUNEL staining of jck kidney sections; format: in vivo, mouse; conditions: Roscovitine treated jck kidney
[3] = tested on: cystic kidneys (cell cycle and transcription proteins); assay: Western blot analysis of cystic kidney protein extracts; format: in vivo, mouse; conditions: cystic kidneys of treated mice
Method: Kidneys were homogenized in RIPA buffer (10 mM HEPES, pH 8.0, 100 mM NaCl, 1% Triton X-100, 0.1% SDS, 0.5% sodium deoxycholate, 1 mM DTT, 1 mM EDTA, 1 mM NaF, 1 mM Na3VO4) with Complete™ protease inhibitor cocktail (Roche Diagnostic GmbH, Mannheim, Germany). 30 μg of protein samples were separated in 4-12% SDS/acrylamide gels (Invitrogen, Carlsbad, Calif.). Gels were soaked in transfer buffer (192 mM glycine, 25 mM Tris, 10% methanol, pH 8.3) and transferred to Immobilone-P membranes (Millipore Corporation, Bedford, Mass.). Membranes were rehydrated with methanol and incubated in blocking buffer (5% powdered milk or 3% BSA in PBS) for 30 min. Membranes were incubated overnight at 4° C. with primary antibodies against RNApolII-p, p35/p25 (Abcam, Cambridge, Mass.); Rb-p, cycD1, cycD1-p, ERK2, ERK1/2-p (Cell Signaling, Danvers, Mass.); Rb2, RBBP, cycD3, caspase-2, caspase-3, ApaF1, Bcl-2, Bcl-XL, BAD (BD Biosciences, San Jose, Calif.); CDK7, CDK9, PCNA, GAPDH (US Biologicals, Swampscott, Mass.); cycD2 (BioSource International, Camarillo, Calif.), washed in TBST and incubated with HRP-labeled secondary antibodies as recommended by the manufacturer Immunoreactive proteins were detected using enhanced chemi-luminescence (Amersham Pharmacia Biotech, Little Chalfont Buckinghamshire, England).

[4] = tested on: jck mouse model of PKD
[5] = tested on: cpk model of PKD; conditions: cpk mice, 100 mg/kg IP daily, day 7 till day 21
[6] = jck female, 150 mg/kg IP daily, continuous 5 W
[7] = jck male, 50 mg/kg IP daily, continuous 5 W
[8] = jck male, 150 mg/kg IP daily, continuous 5 W (Table 2)
[9] = jck male, 150 mg/kg, daily dosing for 5 weeks (Table 2a)
[10] = jck male, 150 mg/kg, pulse treatment 5 W (1/1): 1 week on, 1 week off for 5 weeks
[11] = jck male, 150 mg/kg, pulse treatment 5 W (3/2): 3 weeks on, 2 weeks off

## CC[C@H](CO)Nc1nc(N(C)Cc2ccccc2)c2ncn(C(C)C)c2n1
[1]
  IC50: 190 µM

## CC[C@H](CO)Nc1nc(NCc2ccccc2)c2ncn(C(C)C)c2n1 [Roscovitine, 6-benzylamino-2-(R)-[(1-ethyl-2-hydroxy)ethylamino]-9-isopropylpurine]
[2]; PCNA immunostaining
  PCNA-positive cells: quantitative reduction in PCNA-positive cells
[2]; TUNEL staining
  TUNEL-positive cells: reduced the number of TUNEL-positive cells
[3]
  Cyclin D2 and D3 expression: downregulated
  Level of ERK 1/2 activation: decreasing the level of ERK 1/2 activation
  Levels of Rb associated proteins Rb2 and RBB2: normalized
  Phosphorylation level of cyclin D1 (Thr-286): normalized phosphorylation level of cyclin D1
  Rb phosphorylation: dephosphorylation of Rb3
[3]; vs WT controls
  RNA pol II phosphorylation: reduced levels of RNA pol II phosphorylation
[4]; [6]
  BUN: 31.09 ± 6.12 mg/dL
  Body weight: 19.79 ± 0.80 g
  Cystic volume: 0.74 ± 0.24 % BW
[4]; [7]
  BUN: 51.25 ± 10.19 mg/dL
  Body weight: 20.54 ± 1.66 g
  Cystic volume: 2.25 ± 0.66 % BW
[4]; [8]
  BUN: 26.78 ± 3.31 mg/dL
  Body weight: 21.52 ± 1.78 g
  Cystic volume: 0.98 ± 0.15 % BW
[4]; [9]
  BUN: 28.89 ± 7.51 mg/dL
  Body weight: 22.33 ± 1.05 g
  Cystic volume: 1.10 ± 0.41 % BW
[4]; [10]
  BUN: 43.90 ± 13.08 mg/dL
  Body weight: 22.14 ± 1.10 g
  Cystic volume: 1.28 ± 0.22 % BW
[4]; [11]
  BUN: 27.60 ± 4.32 mg/dL
  Body weight: 22.77 ± 0.39 g
  Cystic volume: 1.29 ± 0.40 % BW
[4]; jck mice, 50 mg/kg
  BUN: reduced
[4]; jck mice, 150 mg/kg
  BUN: normalized
[4]; jck mice, 50 or 150 mg/kg IP
  Tolerability (weight loss, mortality, toxicity): well tolerated with no weight loss, mortality or toxicity
[4]; jck mice, daily for one week followed by one week off, total of 5 weeks
  Cystogenesis with intermittent dosing: reduction of cystogenesis was detected
[4]; jck/jck males, 150 mg/kg daily for 3 weeks, followed by 2 weeks without treatment
  Anti-cystic effect after drug withdrawal: long lasting anti-cystic effect was detected with normalized levels of BUN
[5]
  BUN: 54.58 ± 9.60 mg/dL
  Body weight: 9.75 ± 1.00 g
  Creatinine: 0.29 ± 0.07 mg/dL
  Cystic volume: 14.62 ± 2.16 % BW

Source: patent US20140249165A1, “PURINE DERIVATIVES FOR TREATMENT OF CYSTIC DISEASES” (Genzyme Corporation, priority 2006, published 2014)
